Data reported in the supplement of paper PMC8671470.

What was measured:
Conditions in all cases: 72 h
MV4-11 [1] = system: MV4-11
Summary of the method: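 Fifteen myeloid leukaemia cell lines were seeded in RPMI 1640 at a density titrated to the linear growth range. Each line went into 384-well plates with compounds acoustically pre-printed at five tenfold doses from 1 to 10,000 nM, in duplicate, and was incubated for 72 h at 37 °C with 5% CO2. Luminescent ATP viability was normalised to vehicle and to a positive control at 10 µM. The IC50 came from four-parameter log-logistic dose–response fits.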

HL-60 [2] = experiment: cell viability (% survival relative to DMSO control); higher = less cytotoxic
Summary of the method: (§1)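 For each screen, HL-60 cells in RPMI 1640 with 10% FBS carried either DMSO or 100 nM of one of three metabolic inhibitors while the full library was applied at five tenfold concentrations, 1–10,000 nM, in duplicate. Plates were 384-well and were kept 72 h at 37 °C, 5% CO2. Viability, measured by CellTiter-Glo, was normalised to wells with DMSO and with 10 μM proteasome inhibitor. Where area under the curve appears, it was fitted by four-parameter log-logistic models in drc and PharmacoGx.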

BV-173 = experiment: cell viability (% survival relative to DMSO control, bortezomib = 0%); higher = less cytotoxic
Summary of the method: (§2)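 Reported values are percent survival from duplicate wells, averaged. Fifteen myeloid leukaemia cell lines were treated in 384-well plates with compounds at 1, 10, 100, 1000 or 10000 nM for 72 h at 37 °C in 5% CO2. Signals from CellTiter-Glo luminescence were scaled with vehicle as 100% and a 10 µM positive control as 0%.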

HEL = experiment: as above
Summary of the method: as §2

HL-60 [3] = experiment: as above
Summary of the method: as §2

K-562 = experiment: as above
Summary of the method: as §2

KCL-22 = experiment: as above
Summary of the method: as §2

KG-1 = experiment: as above
Summary of the method: as §2

KU-812 = experiment: as above
Summary of the method: as §2

LAMA-84 = experiment: as above
Summary of the method: as §2

ML-2 = experiment: as above
Summary of the method: as §2

MOLM-13 = experiment: as above
Summary of the method: as §2

MV4-11 [4] = experiment: as above
Summary of the method: as §2

Mono-Mac-6 = experiment: as above
Summary of the method: as §2

NOMO-1 = experiment: as above
Summary of the method: as §2

SHI-1 = experiment: as above
Summary of the method: as §2

THP-1 = experiment: as above
Summary of the method: as §2

HL-60 [5] = experiment: area under dose-response curve (viability, 1 nM-10 uM) (fraction (0-1)); higher = more sensitive
Summary of the method: as §1

Cl.NC(CCC(=O)Nc1ccc([N+](=O)[O-])cc1)C(=O)O (stereo not given) [GPNA]
Conditions	IC50 (cell viability) [µM]
MV4-11 [1]	> 10

cell viability [%], HL-60 [2]
Conditions	0.001 µM	0.01 µM	0.1 µM	1 µM	10 µM
co-treatment: AZD3965 100 nM	96.99	97.1	103.3	102	94.3
co-treatment: DMSO vehicle	98.13	100	98.7	102	98.5
co-treatment: GSK2194069 100 nM	99.6	104	99.4	85.4	96.8
co-treatment: pictilisib 100 nM	100.2	97.4	98.5	98.7	92.5

Conditions	area under dose-response curve, co-treatment: AZD3965 100 nM	area under dose-response curve, co-treatment: DMSO vehicle	area under dose-response curve, co-treatment: GSK2194069 100 nM	area under dose-response curve, co-treatment: pictilisib 100 nM	cell viability, 1 nM [%]	cell viability, 10 nM [%]	cell viability, 100 nM [%]	cell viability, 1000 nM [%]	cell viability, 10000 nM [%]
BV-173	–	–	–	–	114	106	94.1	101	119
HEL	–	–	–	–	95.2	104	106	91.5	104
HL-60 [3]	–	–	–	–	103	60.6	104	99.3	125
HL-60 [5]	< 0.0301	< 0.0301	< 0.0301	< 0.0301	–	–	–	–	–
K-562	–	–	–	–	108	96.3	100	109	120
KCL-22	–	–	–	–	106	91	110	96.5	102
KG-1	–	–	–	–	112	115	95.9	102	108
KU-812	–	–	–	–	108	95.5	103	96.4	110
LAMA-84	–	–	–	–	109	109	98	111	100
ML-2	–	–	–	–	107	90.5	98.9	107	109
MOLM-13	–	–	–	–	101	99.6	109	98.2	134
MV4-11 [4]	–	–	–	–	117	93.5	100	99.5	124
Mono-Mac-6	–	–	–	–	92.2	96.4	105	98.3	104
NOMO-1	–	–	–	–	107	102	101	105	105
SHI-1	–	–	–	–	107	91.6	94.9	99.5	98.3
THP-1	–	–	–	–	106	101	101	102	104

N/C(=N\CCCC(N)C(=O)O)N[N+](=O)[O-] [L-NNA]
Conditions	IC50 (cell viability) [µM]
MV4-11 [1]	> 10

cell viability [%], HL-60 [2]
Conditions	0.001 µM	0.01 µM	0.1 µM	1 µM	10 µM
co-treatment: AZD3965 100 nM	104	105	106	98.7	101.2
co-treatment: DMSO vehicle	102.6	99.86	105	99.1	102
co-treatment: GSK2194069 100 nM	102	99.1	90.4	99.9	101
co-treatment: pictilisib 100 nM	97.6	95.8	102	96.12	100

Conditions	area under dose-response curve, co-treatment: AZD3965 100 nM	area under dose-response curve, co-treatment: DMSO vehicle	area under dose-response curve, co-treatment: GSK2194069 100 nM	area under dose-response curve, co-treatment: pictilisib 100 nM	cell viability, 1 nM [%]	cell viability, 10 nM [%]	cell viability, 100 nM [%]	cell viability, 1000 nM [%]	cell viability, 10000 nM [%]
BV-173	–	–	–	–	96.5	103	105	88.9	96.1
HEL	–	–	–	–	103	98.5	105	91.6	95.6
HL-60 [3]	–	–	–	–	96.1	75.4	114	92.4	126
HL-60 [5]	< 0.0301	< 0.0301	< 0.0301	< 0.0301	–	–	–	–	–
K-562	–	–	–	–	104	94.9	117	92.1	102
KCL-22	–	–	–	–	92.7	107	106	94.8	93.5
KG-1	–	–	–	–	89.2	93.7	96.3	92.6	89.8
KU-812	–	–	–	–	88.3	92.6	102	87.4	91.8
LAMA-84	–	–	–	–	101	105	100	90.9	101
ML-2	–	–	–	–	90.7	102	102	93.7	94.5
MOLM-13	–	–	–	–	102	73.6	92.4	98	88.4
MV4-11 [4]	–	–	–	–	96.4	103	106	103	107
Mono-Mac-6	–	–	–	–	89.4	95.8	92.1	84.2	91
NOMO-1	–	–	–	–	96.4	99.8	99.4	91.5	92.2
SHI-1	–	–	–	–	98.8	95.6	109	96.1	96.7
THP-1	–	–	–	–	98.1	105	96.9	93	91.1

Oc1ccc(Nc2nc(-c3ccc(Cl)cc3)cs2)cc1 [SKI II]
Conditions	IC50 (cell viability) [µM]
MV4-11 [1]	3.2

cell viability [%], HL-60 [2]
Conditions	0.001 µM	0.01 µM	0.1 µM	1 µM	10 µM
co-treatment: AZD3965 100 nM	101.4	103	104	104	15.7
co-treatment: DMSO vehicle	102	105	97.6	100	22.1
co-treatment: GSK2194069 100 nM	99	94.2	99.8	101	30.7
co-treatment: pictilisib 100 nM	96.5	102	101	88	3.95

Conditions	area under dose-response curve, co-treatment: AZD3965 100 nM	area under dose-response curve, co-treatment: DMSO vehicle	area under dose-response curve, co-treatment: GSK2194069 100 nM	area under dose-response curve, co-treatment: pictilisib 100 nM	cell viability, 1 nM [%]	cell viability, 10 nM [%]	cell viability, 100 nM [%]	cell viability, 1000 nM [%]	cell viability, 10000 nM [%]
BV-173	–	–	–	–	104	98.3	96.7	70.5	0.732
HEL	–	–	–	–	102	109	111	95.5	5.26
HL-60 [3]	–	–	–	–	88.9	110	97.7	77.7	11.2
HL-60 [5]	0.0929	0.0805	0.0628	0.151	–	–	–	–	–
K-562	–	–	–	–	99.5	107	107	75.2	36.8
KCL-22	–	–	–	–	94.5	107	109	92.1	25.7
KG-1	–	–	–	–	98	103	97.2	81.7	32.7
KU-812	–	–	–	–	95.5	101	106	90.8	20.6
LAMA-84	–	–	–	–	105	99.9	96.1	96.4	34.2
ML-2	–	–	–	–	93.8	97.2	99.3	89.7	44
MOLM-13	–	–	–	–	80	104	110	106	44.3
MV4-11 [4]	–	–	–	–	97.2	99.2	114	95.9	4.54
Mono-Mac-6	–	–	–	–	99.2	97.8	100	93.5	14.3
NOMO-1	–	–	–	–	97.3	104	104	99.3	66.1
SHI-1	–	–	–	–	94.9	97.8	99.7	96	53.3
THP-1	–	–	–	–	100	96.8	103	86.4	8.38
